The subject of the assay is CFU-S. Nature of the assay: CFU-S proliferation assay, 3H-Thymidine suicide method (bone marrow incubated with test fractions). Format: cell-based, mouse. To be noted: Table 8, bone marrow from testosterone treated mice. The protocol: For the detection of stem cells proliferation the number of CFU-S in S-phase of the cell cycle was measured by the ^3H-Thymidine “suicide” method (Becker et al., Blood 26:296-308, 1965).
Immature hematopoietic progenitors-Colony Forming Units in spleen (CFU-S)—can be detected in vivo by forming macroscopic colonies in the spleens of lethally irradiated mice, 8-12 days after the intravenous injection of hematopoietic cells (Till & McCulloch, 1961).
For the standard CFU-S proliferation assay the method of ^3H-Thymidine “suicide” is usually applied (Becker et al., 1965). The method is based on incorporation of radiolabelled Thymidine, (^3H-Thymidine) a precursor of DNA into cells during DNA synthesis. The CFU-S which are in S-phase of the cycle at the time of testing, are killed by the high radioactivity and therefore not able to form colonies in spleen.
The inhibitor testing can not be done with the bone marrow stem cell population from unstimulated animals, as far as the inhibitor only effects cycling CFU-S, which are as low as 7-10% of the total CFU-S population in the bone marrow of normal mice.
To stimulate CFU-S proliferation, phenylhydrazine (PHZ), or sublethal irradiation were used (Lord, 1976).
The TSP induced stimulation of CFU-S proliferation within 20-24 hours after injection and the effect could be seen for at least 7 days.
The procedure used for the screening of the fractions during purification of the Inhibitor was as follows:
Mice: BDF1 or CBF1 mice strains were used throughout all testing.
Donor mice were treated with a 10 mg/100 g dose of TSP by intraperitoneal injection of 0.2 ml/mouse in order to induce 30-35% of the CFU-S into S-phase.
Twenty-four hours later the bone marrow is taken from the femurs for the cell suspension preparation. […]
Recipient spleens are harvested on day 9-12 and fixed in Tellesnitsky's solution; the colonies are scored by eye score. The percentage of cells in S-phase are calculated using the formula. […]

For the substance “Hbg: C4 Reverse-phase purified porcine hemoglobin beta chain (derived from 2X crystallized pig hemoglobin)”, the “% Kill” value runs as follows: (40 ng/ml) 7%; (200 ng/ml) 25%.

For the origin of these results see US6784155B1, “Inhibitor and stimulator of stem cell proliferation and uses thereof” (Wellstat Therapeutics Corporation, priority 1996, dated 2004).
